This note sets out measurements from patent US20110212997A1, “PIPERIDINE-4-ACETAMIDE DERIVATIVES AND THEIR USE AS MONOAMINE NEUROTRANSMITTER RE-UPTAKE INHIBITORS” (NEUROSEARCH A/S, priority 2008, published 2011).

pIC50: −log10 of the molar value. Read-outs that look alike come from different tables or passages of the source.

Holding throughout (assay type): biochemical
The target in experiment [1] is T1, noradrenaline (NA) reuptake in synaptosomes (Rattus norvegicus, UniProt Q63380).
T1 construct: in synaptosomes as described in WO 97/16451; from tissue
T1 sequence (Q63380 1-617): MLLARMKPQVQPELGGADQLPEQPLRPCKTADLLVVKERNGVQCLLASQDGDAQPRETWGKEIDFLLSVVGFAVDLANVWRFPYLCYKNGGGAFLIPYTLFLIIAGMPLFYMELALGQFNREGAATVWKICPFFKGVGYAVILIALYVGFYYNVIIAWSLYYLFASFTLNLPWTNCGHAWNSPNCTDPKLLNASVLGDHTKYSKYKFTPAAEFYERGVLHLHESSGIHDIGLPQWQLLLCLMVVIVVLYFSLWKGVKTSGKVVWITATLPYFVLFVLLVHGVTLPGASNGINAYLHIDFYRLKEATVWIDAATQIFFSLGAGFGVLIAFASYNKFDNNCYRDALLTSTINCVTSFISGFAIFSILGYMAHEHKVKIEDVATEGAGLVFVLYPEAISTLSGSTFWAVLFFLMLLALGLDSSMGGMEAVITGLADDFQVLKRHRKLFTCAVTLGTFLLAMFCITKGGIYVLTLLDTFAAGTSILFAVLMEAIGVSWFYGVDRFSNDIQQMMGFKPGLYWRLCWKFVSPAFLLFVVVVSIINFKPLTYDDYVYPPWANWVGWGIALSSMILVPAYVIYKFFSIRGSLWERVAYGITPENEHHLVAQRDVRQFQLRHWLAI
The experiment can be described thus: Inhibition of NA reuptake in synaptosomes. On the procedure:
(§1) Compounds were tested for their ability to inhibit the reuptake of the monoamine neurotransmitters dopamine (DA) noradrenaline (NA) and serotonine (5-HT) in synaptosomes as described in WO 97/16451 (NeuroSearch NS).
(§2) The test values are given as IC50 (the concentration (μM) of the test substance which inhibits the specific binding of ^3H-DA, ^3H-NA, or ^3H-5-HT by 50%).

Experiment [2] addresses T2, dopamine (DA) reuptake in synaptosomes (Rattus norvegicus, UniProt P23977).
T2 construct: in synaptosomes as described in WO 97/16451; from tissue
The experiment can be described thus: Inhibition of DA reuptake in synaptosomes. On the procedure:
as §1, §2

The target in experiment [3] is T3, serotonine (5-HT) reuptake in synaptosomes (Rattus norvegicus, UniProt P31652).
T3 construct: serotonine (5-HT) in synaptosomes as described in WO 97/16451; from tissue
T3 sequence (P31652 whole entry): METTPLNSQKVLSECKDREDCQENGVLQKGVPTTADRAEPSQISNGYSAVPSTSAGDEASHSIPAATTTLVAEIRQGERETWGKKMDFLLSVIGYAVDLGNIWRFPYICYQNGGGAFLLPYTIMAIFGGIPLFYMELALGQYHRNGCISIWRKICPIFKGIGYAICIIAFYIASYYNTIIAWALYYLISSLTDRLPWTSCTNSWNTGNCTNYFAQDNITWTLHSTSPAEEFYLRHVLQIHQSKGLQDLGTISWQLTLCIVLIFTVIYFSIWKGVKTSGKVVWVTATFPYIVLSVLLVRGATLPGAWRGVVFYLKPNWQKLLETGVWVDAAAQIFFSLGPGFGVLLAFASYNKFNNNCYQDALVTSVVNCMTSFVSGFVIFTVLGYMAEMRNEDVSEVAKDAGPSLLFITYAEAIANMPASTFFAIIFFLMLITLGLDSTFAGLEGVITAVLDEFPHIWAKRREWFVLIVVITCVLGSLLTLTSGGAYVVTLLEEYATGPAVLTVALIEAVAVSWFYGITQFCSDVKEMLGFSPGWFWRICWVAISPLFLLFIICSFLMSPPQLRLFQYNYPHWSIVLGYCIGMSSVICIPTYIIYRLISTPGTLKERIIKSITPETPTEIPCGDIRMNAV
Kind of experiment: Inhibition of 5-HT reuptake in synaptosomes. To be noted: 3H-5-HT, read-out: 5-HT-uptake IC50. On the procedure:
as §1, §2

Where [4] appears, read: synaptosomes, 3H-NA, read-out: NA-uptake IC50.
Where [5] appears, read: synaptosomes, 3H-DA, read-out: DA-uptake IC50.

T2 sequence (P23977 whole entry): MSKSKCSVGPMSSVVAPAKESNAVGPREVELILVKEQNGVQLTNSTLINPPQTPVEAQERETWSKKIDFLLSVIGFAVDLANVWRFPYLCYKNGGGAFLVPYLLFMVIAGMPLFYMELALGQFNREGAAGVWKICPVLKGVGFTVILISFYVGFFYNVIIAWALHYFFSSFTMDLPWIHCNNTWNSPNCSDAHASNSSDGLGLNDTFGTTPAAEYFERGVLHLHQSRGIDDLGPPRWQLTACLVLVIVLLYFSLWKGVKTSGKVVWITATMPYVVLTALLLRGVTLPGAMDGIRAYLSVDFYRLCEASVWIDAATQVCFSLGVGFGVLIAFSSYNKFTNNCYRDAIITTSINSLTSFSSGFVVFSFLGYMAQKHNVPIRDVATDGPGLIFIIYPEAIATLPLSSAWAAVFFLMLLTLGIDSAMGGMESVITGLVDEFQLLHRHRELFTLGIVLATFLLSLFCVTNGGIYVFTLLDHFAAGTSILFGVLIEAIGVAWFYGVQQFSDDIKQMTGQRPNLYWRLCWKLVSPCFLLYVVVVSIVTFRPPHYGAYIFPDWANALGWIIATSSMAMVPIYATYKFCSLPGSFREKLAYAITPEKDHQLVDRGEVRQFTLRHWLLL

Regarding `CN(C(=O)CC1CCNCC1)c1ccc(Cl)c(Cl)c1` [Compound B1, N-(3,4-Dichloro-phenyl)-N-methyl-2-piperidin-4-yl-acetamide], the results for the negative-log IC50 (pIC50) in experiment [1] (setting [4]), in experiment [2] (setting [5]) and in experiment [3] were 6.92, 6.64 and 6.55, respectively.

Regarding `CCN(C(=O)CC1CCNCC1)c1ccc(Cl)c(Cl)c1` [Compound C1, N-(3,4-Dichloro-phenyl)-N-ethyl-2-piperidin-4-yl-acetamide], the pIC50 in experiment [1] (setting [4]) was 8.18; in experiment [2] (setting [5]), 7.82; in experiment [3] it was 5.82.

With `O=C(CC1CCNCC1)Nc1ccc(Cl)c(Cl)c1` [Compound C2, N-(3,4-Dichloro-phenyl)-2-piperidin-4-yl-acetamide], the negative logarithm of the IC50 (pIC50) is below 6.00 in experiment [1] (setting [4]), below 6.00 in experiment [2] (setting [5]) and 7.64 in experiment [3].

With `CCN(C(=O)CC1CCNCC1)c1ccc(Cl)cc1` [Compound C3, N-(4-Chloro-phenyl)-N-ethyl-2-piperidin-4-yl-acetamide], the values for the pIC50 in experiment [1] (setting [4]), in experiment [2] (setting [5]) and in experiment [3] were 6.11, 6.35 and below 6.00, respectively.

As to `CCN(C(=O)CC1CCNCC1)c1cccc(Cl)c1` [Compound C4, N-(3-Chloro-phenyl)-N-ethyl-2-piperidin-4-yl-acetamide], the pIC50 is 6.34 in experiment [1] (setting [4]), 6.22 in experiment [2] (setting [5]) and below 6.00 in experiment [3].

On to `CCN(C(=O)CC1CCNCC1)c1cccc2ccccc12` [Compound C5, N-Ethyl-N-naphthalen-1-yl-2-piperidin-4-yl-acetamide], for which the values for the pIC50 in experiment [1] (setting [4]), in experiment [2] (setting [5]) and in experiment [3] were 6.22, below 6.00 and below 6.00, respectively.

As for `CCN(C(=O)CC1CCNCC1)c1cccc(Cl)c1Cl` [Compound C6, N-(2,3-Dichloro-phenyl)-N-ethyl-2-piperidin-4-yl-acetamide], the negative-log IC50 (pIC50) is 6.04 in experiment [1] (setting [4]), below 6.00 in experiment [2] (setting [5]) and below 6.00 in experiment [3].

Consider `CCN(C(=O)CC1CCNCC1)c1cc(Cl)ccc1Cl` [Compound C7, N-(2,5-Dichloro-phenyl)-N-ethyl-2-piperidin-4-yl-acetamide], for which the pIC50 in experiment [1] (setting [4]) is 5.82; in experiment [2] (setting [5]), 5.59; in experiment [3], below 6.00.

As for `CCN(C(=O)CC1CCNCC1)c1c(Cl)cccc1Cl` [Compound C8, N-(2,6-Dichloro-phenyl)-N-ethyl-2-piperidin-4-yl-acetamide], the pIC50 in experiment [1] (setting [4]) was 5.57; in experiment [2] (setting [5]) it was below 6.00; in experiment [3], below 6.00.

Turning to `CCN(C(=O)CC1CCNCC1)c1cc(Cl)cc(Cl)c1` [Compound C9, N-(3,5-Dichloro-phenyl)-N-ethyl-2-piperidin-4-yl-acetamide], the pIC50 in experiment [1] (setting [4]) is 6.17; in experiment [2] (setting [5]), 5.72; in experiment [3], below 6.00.

On to `CCN(C(=O)CC1CCNCC1)c1ccc(Cl)c(Cl)c1Cl` [Compound C10, N-Ethyl-2-piperidin-4-yl-N-(2,3,4-trichloro-phenyl)-acetamide], for which the pIC50 in experiment [1] (setting [4]) is 6.92; in experiment [2] (setting [5]), 6.20; in experiment [3] it was 5.85.

For `CCN(C(=O)CC1CCNCC1)c1ccc(Br)c(Br)c1` [Compound C11, N-(3,4-Dibromo-phenyl)-N-ethyl-2-piperidin-4-yl-acetamide], the negative logarithm of the IC50 (pIC50) was 8.92 in experiment [1] (setting [4]), 8.66 in experiment [2] (setting [5]) and 6.21 in experiment [3].

Take `CCCN(C(=O)CC1CCNCC1)c1ccc(Cl)c(Cl)c1` [Compound C12, N-(3,4-Dichloro-phenyl)-2-piperidin-4-yl-N-propyl-acetamide]: the pIC50 was 8.28 in experiment [1] (setting [4]), 7.92 in experiment [2] (setting [5]) and 6.06 in experiment [3].

`CCN(C(=O)CC1CCNCC1)c1ccc(Cl)c(Br)c1` [Compound C13, N-(3-Bromo-4-chloro-phenyl)-N-ethyl-2-piperidin-4-yl-acetamide]: the values for the pIC50 in experiment [1] (setting [4]), in experiment [2] (setting [5]) and in experiment [3] were 8.89, 8.10 and 5.92, respectively.

Turning to `CCN(C(=O)CC1CCN(C)CC1)c1ccc(Cl)c(Cl)c1` [Compound D1, N-(3,4-Dichloro-phenyl)-N-ethyl-2-(1-methyl-piperidin-4-yl)-acetamide], the negative logarithm of the IC50 (pIC50) was 8.36 in experiment [1] (setting [4]), 7.70 in experiment [2] (setting [5]) and 5.85 in experiment [3].

Turning to `CCN(C(=O)CC1CCN(C)CC1)c1ccc(Cl)cc1` [Compound D2, N-(4-Chloro-phenyl)-N-ethyl-2-(1-methyl-piperidin-4-yl)-acetamide], the negative logarithm of the IC50 (pIC50) was 6.41 in experiment [1] (setting [4]), 6.01 in experiment [2] (setting [5]) and below 6.00 in experiment [3].

`CCN(C(=O)CC1CCN(C)CC1)c1cccc2ccccc12` [Compound D3, N-Ethyl-2-(1-methyl-piperidin-4-yl)-N-naphthalen-1-yl-acetamide]: the pIC50 was 5.77 in experiment [1] (setting [4]), below 6.00 in experiment [2] (setting [5]) and below 6.00 in experiment [3].

For `CCN(C(=O)CC1CCNCC1)c1ccc(Br)c(Cl)c1` [Compound D4, N-(4-Bromo-3-chloro-phenyl)-N-ethyl-2-piperidin-4-yl-acetamide], the pIC50 in experiment [1] (setting [4]) is 8.59; in experiment [2] (setting [5]), 8.07; in experiment [3], 5.68.

Turning to `CCN(C(=O)CC1CCNCC1)c1ccc(Cl)cc1Cl` [Compound D5, N-(2,4-Dichloro-phenyl)-N-ethyl-2-piperidin-4-yl-acetamide], the pIC50 in experiment [1] (setting [4]), in experiment [2] (setting [5]) and in experiment [3] was below 6.00 in each case.

For `CN1CCC(CC(=O)Nc2ccc(Cl)c(Cl)c2)CC1` [Compound D6, N-(3,4-Dichloro-phenyl)-2-(1-methyl-piperidin-4-yl)-acetamide], the pIC50 in experiment [1] (setting [4]), in experiment [2] (setting [5]) and in experiment [3] was below 6.00 each time.

In the case of `CCN(C(=O)CC1CCN(C)CC1)c1cccc(Cl)c1` [Compound D7, N-(3-Chloro-phenyl)-N-ethyl-2-(1-methyl-piperidin-4-yl)-acetamide], the pIC50 in experiment [1] (setting [4]) was 6.46; in experiment [2] (setting [5]) it was 6.01; in experiment [3], below 6.00.

For `CCN(C(=O)CC1CCN(C)CC1)c1cccc(Cl)c1Cl` [Compound D8, N-(2,3-Dichloro-phenyl)-N-ethyl-2-(1-methyl-piperidin-4-yl)-acetamide], the negative logarithm of the IC50 (pIC50) in experiment [1] (setting [4]), in experiment [2] (setting [5]) and in experiment [3] was below 6.00 each time.

Take `CCCN1CCC(CC(=O)N(CC)c2ccc(Cl)c(Cl)c2)CC1` [Compound D9, N-(3,4-Dichloro-phenyl)-N-ethyl-2-(1-propykpiperidin-4-yl)-acetamide]: the pIC50 in experiment [1] is 8.42; in experiment [2] it was 7.92; in experiment [3], 6.11.

`CCN(C(=O)CC1CCN(C(C)C)CC1)c1ccc(Cl)c(Cl)c1` [Compound D10, N-(3,4-Dichloro-phenyl)-N-ethyl-2-(1-isopropyl-piperidin-4-yl)-acetamide]: the negative-log IC50 (pIC50) in experiment [1] (setting [4]) was 8.11; in experiment [2] (setting [5]), 7.51; in experiment [3] it was 5.92.

In the case of `CCN1CCC(CC(=O)N(CC)c2ccc(Cl)c(Cl)c2)CC1` [Compound D11, N-(3,4-Dichloro-phenyl)-N-ethyl-2-(1-ethyl-piperidin-4-yl)-acetamide], the pIC50 in experiment [1] (setting [4]) is 8.49; in experiment [2] (setting [5]), 7.89; in experiment [3], 6.06.

As for `CN1CCC(CC(=O)N(C)c2ccc(Cl)c(Cl)c2)CC1` [Compound D12, N-(3,4-Dichloro-phenyl)-N-methyl-2-(1-methyl-piperidin-4-yl)-acetamide], the pIC50 in experiment [1] (setting [4]) was 7.16; in experiment [2] (setting [5]) it was 6.80; in experiment [3], below 6.00.

For the molecule `CCN(C(=O)CC1CCN(C)CC1)c1ccc(Br)c(Cl)c1` [Compound D13, N-(4-Bromo-3-chloro-phenyl)-N-ethyl-2-(1-methyl-piperidin-4-yl)-acetamide], the pIC50 in experiment [1] (setting [4]) was 8.57; in experiment [2] (setting [5]), 7.80; in experiment [3] it was 5.82.

As for `CCN(C(=O)CC1CCN(C)CC1)c1ccc(Cl)cc1Cl` [Compound D14, N-(2,4-Dichloro-phenyl)-N-ethyl-2-(1-methyl-piperidin-4-yl)-acetamide], the results for the negative logarithm of the IC50 (pIC50) in experiment [1] (setting [4]), in experiment [2] (setting [5]) and in experiment [3] were 6.02, 5.60 and below 6.00, respectively.

On to `CCN(C(=O)CC1CCN(C)CC1)c1cc(Cl)ccc1Cl` [Compound D15, N-(2,5-Dichloro-phenyl)-N-ethyl-2-(1-methyl-piperidin-4-yl)-acetamide], for which the values for the pIC50 in experiment [1] (setting [4]), in experiment [2] (setting [5]) and in experiment [3] were 6.07, 5.77 and below 6.00, respectively.

As to `CCN(C(=O)CC1CCN(C)CC1)c1c(Cl)cccc1Cl` [Compound D16, N-(2,6-Dichloro-phenyl)-N-ethyl-2-(1-methyl-piperidin-4-yl)-acetamide], the pIC50 in experiment [1] (setting [4]), in experiment [2] (setting [5]) and in experiment [3] was below 6.00 in each case.

Regarding `CCN(C(=O)CC1CCN(C)CC1)c1cc(Cl)cc(Cl)c1` [Compound D17, N-(3,5-Dichloro-phenyl)-N-ethyl-2-(1-methyl-piperidin-4-yl)-acetamide], the pIC50 in experiment [1] (setting [4]) was 5.74; in experiment [2] (setting [5]), below 6.00; in experiment [3], below 6.00.

Take `CCN(C(=O)CC1CCN(C)CC1)c1ccc(Cl)c(Cl)c1Cl` [Compound D18, N-Ethyl-2-(1-methyl-piperidin-4-yl)-N-(2,3,4-trichloro-phenyl)-acetamide]: the pIC50 in experiment [1] (setting [4]) is 7.09; in experiment [3], 5.68.

With `CCN(C(=O)CC1CCN(C)CC1)c1ccc(Br)c(Br)c1` [Compound D19, N-(3,4-Dibromo-phenyl)-N-ethyl-2-(1-methyl-piperidin-4-yl)-acetamide], the pIC50 is 8.96 in experiment [1] (setting [4]), 8.44 in experiment [2] (setting [5]) and 6.17 in experiment [3].
